Assay results as given in patent US6858633B1, “Substituted 2-arylbenzazole compounds and their use as antitumour agents” (Cancer Research Technology Limited, priority 1999, dated 2005).

Key:
[1] = test system: certain human breast cancer cell lines; details: WO 95/06469; cited from earlier work
[2] = Stability in plasma in vitro; type: in vitro ADME, rat; details: rat, plasma
[3] = rat, in vivo, iv, 25 mg/kg
MDA468 = experiment: In vitro cytotoxicity, 3-day MTT assay, MDA468; type: cell-based; details: n=8
Experimental: (§1) In carrying out the following cytoloxicity assays, the method used corresponds substantially to the following example: • Cells were maintained in a continuous logarithmic culture in RMPI 1640 with L-glutamine medium, supplemented with 10% fetal calf serum, penicillin (100 IU/ml) and streptomycin (100 μg/ml). The cells were mildly trypsinized for passage and for use in assays. • On day one, 180 μl of trypsinized tumour cells (5×10^3 ml^−1) were placed in the wells of 96-well, flat-bottom microtiter plates. Columns 1 and 12 were filled with 300 μl medium to protect from evaporation. The plates were incubated for 24 hours at 37° C. and 5% CO2 in air to allow the cells to adhere and resume exponential growth prior to the addition of drugs. The compounds being tested were dissolved in DMSO and stored as 10 mM stock solutions at 4° C., protected from light. […] 20 μl of drug dilution was added to the other wells with the lowest concentration in column 3 and the highest concentration in column 11. The plates were incubated for 72 hours at 37° C. and 5% CO2 in air. Each compound was tested in triplicate. At the time of drug addition, a plate of untreated cells was read to provide an initial optical density value for use in the calculation of the IC50. • On day five the plates were read. 50 μl MTT (1 mg/ml^−1) was added per well and the plates incubated for a further 4 hours. The MTT is metaboliscd to form a blue formazan product. The MTT solution was aspirattd and 125 μl DMSO:glycine buffer (4:1) was added. The plates were placed on a plate shaker until the fornazan crystals had dissolved and absorbance was ready at 550 nm on a plate reader. • For each compound tested, a dose response curve was obtained and the IC50 statue (drug concentration at 50% inhibition of cell growth) was calculated.
(§2) (n=8) for a range of compounds in relation to MCF-7 and MDA 468 cell lines.

MCF-7 = experiment: In vitro cytotoxicity, 3-day MTT assay, MCF-7; type: cell-based, human; details: 3-day MTT assay, n=8
Experimental: as §1, §2

MCF-7 cells = experiment: Conversion of prodrug to parent in culture of MCF-7 cells; type: cell-based
[4] = Blood parameters and liver transaminases in xenograft studies; set-up: species or system nude mice; details: mouse, in vivo
[5] = Plasma concentrations after administration to mice; type: in vivo; details: mouse, 70 μmol/kg, read-out: Geometric Mean Plasma Concentration
COLO205 xenografts = experiment: In vivo COLO205 xenograft study (FIG. 2)
sensitive cell lines = experiment: Biphasic dose-response relationship (second growth phase) in sensitive cell lines; type: cell-based
Source text: One feature of the prior art compounds is that they show a biphasic dose-response relationship specifically in sensitive cell lines: cell kill occurs at low nanomolar concentrations of the compounds, followed by a potentially undesirable proliferative response at low micromolar concentrations (termed the “second growth phase”).

[6] = test system: ER positive MCF-7 human breast tumor xenografts; details: for growth inhibition of MCF-7 xenografts: given i.p.
[7] = test system: ER negative MT-1 human breast tumor xenografts; details: for tumor growth inhibition in MT-1 xenografts / weight loss in MT-1 xenograft study: dose dependence
[8] = test system: cell lines that relate to a range of various mammalian cancers other than human breast cancer; details: WO 96/26932; cited from earlier work

## Nc1ccc(-c2nc3ccccc3s2)cc1 [CJM 126, 2-(4′-aminophenyl)benzothiazole]
[1]
  specific inhibitory activity in human breast cancer cell lines: remarkably high specific inhibitory activity

## Cc1cc(-c2nc3cc(F)ccc3s2)ccc1NC(=O)C(N)CCCCN.Cl.Cl (centres unmarked) [Compound Iad, 5-Fluoro-2-(4′-amino-3′-methylphenyl)benzothiazole Lysyl Amide Dihydrochloride Salt]
[2]
  stability in plasma in vitro: stable
[3]
  removal from plasma and reconversion to parent compound in vivo: readily removed from such plasma and reconverted to their parent compound in vivo
MDA468
  IC50: 158 nM
MCF-7
  IC50: 40 nM
MCF-7 cells
  concentration of parent compound 5F203 after addition of prodrug to MCF-7 culture: progressive increase in concentration of the parent compound 5F203

## Cc1cc(-c2nc3cc(F)ccc3s2)ccc1N [Compound Ik, 5-Fluoro-2-(4′-amino-3′-methylphenyl)benzothiazole]
[4]
  blood parameters (white blood cell and platelet counts) and level of liver transaminases: not adversely affected
[5]; mean sample time 3.5 min
  concentration at 3.5 min: 1180 nM
[5]; mean sample time 6.5 min
  concentration at 6.5 min: 1530 nM
[5]; mean sample time 9.5 min
  concentration at 9.5 min: 1840 nM
[5]; mean sample time 12.5 min
  concentration at 12.5 min: 2270 nM
[5]; mean sample time 15.5 min
  concentration at 15.5 min: 3270 nM
[5]; mean sample time 20.8 min
  concentration at 20.8 min: 2680 nM
[5]; mean sample time 30.5 min
  concentration at 30.5 min: 3770 nM
[5]; mean sample time 45.4 min
  concentration at 45.4 min: 3410 nM
[5]; mean sample time 60.5 min
  concentration at 60.5 min: 4110 nM
[5]; mean sample time 90.6 min
  concentration at 90.6 min: 3520 nM
[5]; mean sample time 120.5 min
  concentration at 120.5 min: 2630 nM
[5]; mean sample time 240.0 min
  concentration at 240 min: 1000 nM
[5]; mean sample time 360.0 min
  concentration at 360 min: 590 nM
COLO205 xenografts
  tumour growth inhibition, COLO205 xenografts (FIG. 2): tumour growth inhibition observed
MDA468; 72 h
  IC50: < 0.1 nM
Sensitive cell lines
  biphasic dose-response (second growth phase): the biphasic response is eliminated
MCF-7; Homo sapiens, MCF7, 72 h
  IC50: < 0.1 nM
[6]; 12.5 mg/kg, i.p.
  toxicity in MCF-7 xenograft study: toxic
[6]
  tumour growth inhibition, MCF7 xenografts (FIG. 1): Tumour growth inhibition observed
  growth inhibition of MCF-7 xenografts: Significant growth inhibition
[7]; 25 mg/kg, parent compounds
  toxicity in MT-1 xenograft study: toxic
[7]
  tumor growth inhibition in MT-1 xenografts: dose-dependent tumor growth inhibition
  weight loss in MT-1 xenograft study: weight loss

## Cc1cc(-c2nc3ccccc3s2)ccc1N [DF203, 2-(4′-amino-3′-methylphenyl)benzothiazole, reference compound]
[8]
  anti-proliferative activity in cell lines of cancers other than human breast cancer: exhibit anti-proliferative activity selectively
[6]
  tumour growth inhibition, MCF7 xenografts (FIG. 1): Tumour growth inhibition observed

## Cc1cc(-c2nc3ccc(F)cc3s2)ccc1N [Ib, 6-Fluoro-2-(4′-amino-3′-methylphenyl)benzothiazole]
[4]
  blood parameters (white blood cell and platelet counts) and level of liver transaminases: not adversely affected
COLO205 xenografts
  tumour growth inhibition, COLO205 xenografts (FIG. 2): tumour growth inhibition observed
MDA468; 72 h
  IC50: 0.11 nM
Sensitive cell lines
  biphasic dose-response (second growth phase): the biphasic response is eliminated
MCF-7; Homo sapiens, MCF7, 72 h
  IC50: < 0.1 nM
[6]
  growth inhibition of MCF-7 xenografts: Significant growth inhibition
[7]; 12.5 mg/kg
  growth inhibition of MT-1 xenografts compared with same dose of (Ik): more pronounced growth inhibition
[7]
  tumor growth inhibition in MT-1 xenografts: dose-dependent tumor growth inhibition
  weight loss in MT-1 xenograft study: weight loss
